This note sets out measurements from patent US20250145565A1 (BATTERJEE MEDICAL COLLEGE, priority 2021, published 2025).

Read-outs that look alike come from different tables or passages of the source.

What all share (assay type): biochemical
The target of one assay is ALDH2 (Homo sapiens (Human), UniProt P05091). In words: ALDH assay (diaphorase/resazurin), ALDH2 inhibition. From the text:
(§1) ALDH catalyzes the oxidation of acetaldehyde to acetic acid while reducing NAD+ to NADH. The formation of NADH is fluorescently detected using diaphorase/resazurin system. Diaphorase utilizes NADH formed from ALDH reaction to produce the fluorescent molecule resorufin from resazurin. See Davis, M. I.; Shen, M.; Simeonov, A.; Hall, M. D., Diaphorase Coupling Protocols for Red-Shifting Dehydrogenase Assays.
(§2) The reagent ALDH1a1 is from R&D Systems (Minneapolis, MN). ALDH2 is from Prospect Bio (East Brunswick, NJ). Acetaldehyde is from Cayman Chemicals (Ann Arbor, MI). NAD^+, and Resazurin sodium salt are from Sigma (St. Louis, MO). Diaphorase is from Reaction Biology (Malvern PA). Zaba micro spin columns are from ThermoFisher scientific (Waltham, MA). […] Desalted samples from each enzyme were pooled together and placed in ice until use. Reaction buffer (50 mM sodium pyrophosphate buffer at pH 8.8, 0.01% Brij35) degassed using vacuum for 10 mins until no visible air bubbles were seen.
(§3) 5 μl of reaction buffer was delivered to ‘no enzyme’ background control wells. Test compounds were prepared in 100% DMSO by serial dilution in 100× of assay concentration. After adding the test compounds, reaction plate was centrifuged briefly in 1200 rpm, then incubated for 20 min at room temperature, to pre-incubate enzyme and compounds. […] Reaction plate was briefly centrifuged and sealed with a plastic film to limit evaporation. After incubation at room temperature for 60 min, 10 μl of detection reagent (15 μg/ml diaphorase, 30 μM resazurin prepared in the degassed reaction buffer) was added. Reaction plate was briefly centrifuged and incubated for 10 minutes at room temperature in the dark.
In general terms: The colour change of resazurin is a common sign of viable cells or microbes.

The next assay addresses ALDH1a1 (Homo sapiens (Human), UniProt P00352). In words: ALDH assay (diaphorase/resazurin), ALDH1a1 inhibition.
Text: as §1, §2, §3

Another assay addresses human MAGL (hMAGL) (Homo sapiens (Human), UniProt Q99685). In words: MAGL enzyme inhibition assay (4-nitrophenylacetate). The settings on record: for IC50: Table II, average of at least two experiments, read-out: IC50 (μM) ± SE (hMAGL); for decrease in inhibitory activity against MAGL: relative to disulfiram / unsubstituted analog. Here is the method:
The plate was mixed for 30 s and incubated at room temperature for 30 min.

The next assay deals with human FAAH (hFAAH) (Homo sapiens (Human), UniProt O00519). In words: FAAH enzyme inhibition assay (Cayman kit, AMC-arachidonoyl amide). The settings on record: for IC50: Table II, average of at least two experiments, read-out: IC50 (μM) ± SE (hFAAH). The procedure:
FAAH inhibition assay was performed using Fatty Acid Amide Hydrolase Inhibitor Screening Assay Kit (Item #10005196), Cayman (1180 E Ellsworth Rd Ann Arbor, MI, USA). […] Manufacturer's protocol was followed to perform the assay. The assay buffer (125 mM Tri-HCl with 1 mM EDTA, pH 9.0) was used to dilute the FAAH human recombinant enzyme. AMC-Arachidonoyl amide, at a concentration of 400 μM was then used as the FAAH substrate. Samples were mixed for 30 s and incubated at 37° C. for 30 min. The fluorescent by-product AMC (7-amino-4-methylcoumarin) released by the FAAH enzyme was detected and quantified at an excitation wavelength of 355 nm and emission wavelength of 460 nm.

Where [1] appears, read: Table IB, mean of at least two independent experiments, read-out: IC50 (μM) ± SE (ALDH2).
The mark [2] stands for this setting: Table IA, mean of at least two independent experiments, read-out: IC50 (μM) ± SE (ALDH1a1).
[3] abbreviates: Table III, read-out: Aldh1a1 (IC50, μM) ± SE.

human FAAH (hFAAH), sequence (O00519 whole entry): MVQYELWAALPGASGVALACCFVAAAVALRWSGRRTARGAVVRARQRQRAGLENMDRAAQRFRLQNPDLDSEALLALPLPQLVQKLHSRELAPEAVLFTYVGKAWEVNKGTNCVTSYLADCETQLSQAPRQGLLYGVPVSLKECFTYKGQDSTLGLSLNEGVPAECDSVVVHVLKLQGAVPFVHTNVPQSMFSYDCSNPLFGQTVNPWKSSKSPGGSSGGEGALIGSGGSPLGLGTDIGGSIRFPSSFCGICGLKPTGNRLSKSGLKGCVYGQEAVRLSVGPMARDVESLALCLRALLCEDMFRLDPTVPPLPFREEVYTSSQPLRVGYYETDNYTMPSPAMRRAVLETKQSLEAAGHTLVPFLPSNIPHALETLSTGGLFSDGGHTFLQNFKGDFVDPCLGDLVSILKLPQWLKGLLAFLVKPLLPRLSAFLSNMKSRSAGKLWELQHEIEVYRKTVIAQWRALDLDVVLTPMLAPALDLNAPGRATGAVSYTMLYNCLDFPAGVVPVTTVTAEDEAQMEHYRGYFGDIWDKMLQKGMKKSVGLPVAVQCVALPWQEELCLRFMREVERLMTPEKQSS
ALDH1a1, sequence (P00352 whole entry): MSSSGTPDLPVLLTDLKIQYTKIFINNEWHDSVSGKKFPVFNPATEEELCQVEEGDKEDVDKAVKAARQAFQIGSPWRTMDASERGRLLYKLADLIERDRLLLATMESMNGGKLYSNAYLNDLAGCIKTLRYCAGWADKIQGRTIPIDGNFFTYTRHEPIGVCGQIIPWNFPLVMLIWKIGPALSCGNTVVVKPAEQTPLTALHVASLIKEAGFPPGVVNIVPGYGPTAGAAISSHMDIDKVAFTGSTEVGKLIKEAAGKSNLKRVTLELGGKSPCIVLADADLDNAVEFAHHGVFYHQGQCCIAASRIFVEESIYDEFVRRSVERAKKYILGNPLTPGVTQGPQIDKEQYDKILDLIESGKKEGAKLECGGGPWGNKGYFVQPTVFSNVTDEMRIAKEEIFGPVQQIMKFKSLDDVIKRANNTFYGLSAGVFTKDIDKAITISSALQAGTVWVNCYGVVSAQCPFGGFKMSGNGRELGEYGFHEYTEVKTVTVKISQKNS
ALDH2, sequence (P05091 18-517): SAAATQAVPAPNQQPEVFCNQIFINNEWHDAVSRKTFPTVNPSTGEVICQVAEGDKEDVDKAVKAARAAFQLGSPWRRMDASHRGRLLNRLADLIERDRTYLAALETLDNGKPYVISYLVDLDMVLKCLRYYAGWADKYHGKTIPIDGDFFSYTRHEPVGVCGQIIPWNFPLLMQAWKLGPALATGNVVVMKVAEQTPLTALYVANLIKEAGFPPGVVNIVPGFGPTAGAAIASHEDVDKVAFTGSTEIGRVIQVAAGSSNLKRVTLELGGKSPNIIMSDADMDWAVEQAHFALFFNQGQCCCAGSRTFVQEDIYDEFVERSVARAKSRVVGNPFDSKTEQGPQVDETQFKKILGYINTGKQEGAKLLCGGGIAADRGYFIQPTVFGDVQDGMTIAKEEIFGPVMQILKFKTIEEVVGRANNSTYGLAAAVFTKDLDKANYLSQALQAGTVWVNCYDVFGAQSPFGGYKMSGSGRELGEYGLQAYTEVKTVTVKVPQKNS
human MAGL (hMAGL), sequence (Q99685 whole entry): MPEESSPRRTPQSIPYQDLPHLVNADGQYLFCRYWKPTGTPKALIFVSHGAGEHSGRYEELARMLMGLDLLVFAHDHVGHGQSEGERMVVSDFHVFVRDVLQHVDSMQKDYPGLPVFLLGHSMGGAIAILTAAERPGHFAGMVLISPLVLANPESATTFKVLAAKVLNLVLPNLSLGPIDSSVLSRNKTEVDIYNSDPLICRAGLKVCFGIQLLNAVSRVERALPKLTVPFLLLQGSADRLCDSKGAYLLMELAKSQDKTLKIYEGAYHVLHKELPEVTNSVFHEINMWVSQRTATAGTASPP

Usually IC50 stands for the concentration at which inhibition is half-maximal. Consider `CCN(Cc1ccc(C(=O)O)cc1)C(=S)SSC(=S)N(CC)Cc1ccc(C(=O)O)cc1` [Compound I-2d], for which the IC50 at ALDH2 (setting [1]) was determined as 99.36 ± 0.64 µM; on ALDH1a1 (setting [2]), 2.96 ± 1.52 µM; at human MAGL (hMAGL), 22.6 ± 16.8 µM. The “decrease in ALDH1a1 inhibitory activity” value at ALDH1a1 (relative to I-2a) was “tenfold decrease”. Besides, the “decrease in inhibitory activity against MAGL” value at human MAGL (hMAGL) is listed as 20 fold. Further, the “FAAH inhibitory activity (in words)” value on human FAAH (hFAAH) is reported as “devoid of anti-FAAH activity”.

Consider `CC(C)CN(CC(C)C)C(=S)SSC(=S)N(CC(C)C)CC(C)C` [Compound I-2j, reference compound], for which the “activity against ALDH1a1 (in words)” value on ALDH1a1 is on record as “complete loss of activity”. Moreover, the IC50 on ALDH1a1 (setting [2]) is above 100 µM. At human MAGL (hMAGL), the concentration for half-maximal inhibition (IC50) was found to be 13.4 ± 4.79 µM and the “decrease in inhibitory activity against MAGL” value is “up to 15 fold”. Also, the “hydrolytic activity of inhibited MAGL upon addition of dithiothreitol” value at human MAGL (hMAGL) (dithiothreitol (10 mM)) is “restored”. Moreover, on human FAAH (hFAAH), the “FAAH inhibitory activity (in words)” value is “no inhibition”.

For `CC(C)N(C(=S)SSC(=S)N(C(C)C)C(C)C)C(C)C` [Compound I-2h, reference compound], the IC50 on ALDH2 (setting [1]) was above 100 µM; at ALDH1a1 (setting [2]), 2.85 ± 1.08 µM; at human MAGL (hMAGL), 1.89 ± 0.37 µM.

With `CCN(CC)C(=S)SSC(=S)N(CC)CC` [Disulfiram, reference compound], the IC50 at human MAGL (hMAGL) was 0.95 ± 0.26 µM; at human FAAH (hFAAH) (listed as II-2a) it was 36.2 ± 11 µM.

Take `CCN(Cc1ccc(C(F)(F)F)cc1)C(=S)SSC(=S)N(CC)Cc1ccc(C(F)(F)F)cc1` [III-1n, bis(N-4-trifluoromethylbenzylethylthiocarbamoyl)disulphide]: the “Aldh2 (IC50, μM) ± SE” value at ALDH2 (Table III) is recorded as “No inhibition”. Also, on ALDH1a1 (Table III), the “Aldh1a1 (IC50, μM) ± SE” value is “No inhibititon”.

Consider `CCN(Cc1ccsc1)C(=S)SSC(=S)N(CC)Cc1ccsc1` [III-2r, bis(N-(3-thienylmethyl)ethylthiocarbamoyl)disulphide], for which the “Aldh2 (IC50, μM) ± SE” value at ALDH2 (Table III) is on record as “No inhibition”. The IC50 at ALDH1a1 (setting [3]) was found to be 0.17 ± 0.1 µM.

On to `CN(C)C(=S)SSC(=S)N(C)C` [Compound I-2g, reference compound], for which the IC50 at ALDH2 (setting [1]) was 0.32 ± 0.04 µM; at ALDH1a1 (setting [2]), 0.02 ± 0.01 µM.

With `CCN(Cc1ccncc1)C(=S)SSC(=S)N(CC)Cc1ccncc1` [III-2o, bis(N-(4-pyridylmethyl)ethylthiocarbamoyl) disulphide], at ALDH2 (Table III), the “Aldh2 (IC50, μM) ± SE” value is reported as “No inhibition”. For the same molecule, on ALDH1a1 (setting [3]), the IC50 is 5.76 ± 4.01 µM.

For the molecule `CCN(Cc1cccs1)C(=S)SSC(=S)N(CC)Cc1cccs1` [III-2q, bis(N-(2-thienylmethyl)ethylthiocarbamoyl)disulphide], the “Aldh2 (IC50, μM) ± SE” value at ALDH2 (Table III) is recorded as “No inhibition”. Moreover, the IC50 on ALDH1a1 (setting [3]) was found to be 0.39 ± 0.31 µM.

For `NCCSSCCN` [Compound 4, Cystamine, reference compound], the “ALDH2 inhibitory activity (in words)” value at ALDH2 was “none of them showed any activity”. In addition, on ALDH1a1, the “activity against ALDH1a1 (in words)” value is “none of them showed any activity”. Also, the IC50 on ALDH1a1 (setting [2]) is above 100 µM.

Consider `CCN(Cc1ccco1)C(=S)SSC(=S)N(CC)Cc1ccco1` [III-2p, bis(N-(2-furylmethyl)ethylthiocarbamoyl)disulphide], for which the 50% inhibitory concentration (IC50) at ALDH2 (Table III, read-out: Aldh2 (IC50, μM) ± SE) is 200 ± 129 µM; on ALDH1a1 (setting [3]), 0.39 ± 0.27 µM.

Regarding `NCCS` [Compound 3, Cysteamine, reference compound], on ALDH2, the “ALDH2 inhibitory activity (in words)” value was “none of them showed any activity”. The “activity against ALDH1a1 (in words)” value at ALDH1a1 is on record as “none of them showed any activity”.

“bis(N-4-ethoxycarbonylbenzylethylthiocarbamoyl)disulphide [II-2l]”: the IC50 on human MAGL (hMAGL) came to 5.03 ± 2.35 µM. Further, the “FAAH inhibitory activity (in words)” value at human FAAH (hFAAH) is given as “devoid of anti-FAAH activity”.

As to `CCOCCNC(=S)SSC(=S)NCCOCC` [Compound I-2m, reference compound], the IC50 at ALDH1a1 (setting [2]) was 0.04 ± 0.03 µM.

For the molecule `CCN(CCO)C(=S)SSC(=S)N(CC)CCO` [Compound I-2f, bis(N-hydroxyethylethylthiocarbamoyl)disulfide], the IC50 at ALDH2 (setting [1]) was found to be 25.7 ± 12.3 µM; on ALDH1a1 (setting [2]), 2.54 ± 1.15 µM; on human MAGL (hMAGL), 0.72 ± 0.2 µM; at human FAAH (hFAAH) it was 25.4 ± 3.26 µM.

As to “N-Acetyl-L-Cysteamine [Compound 5, reference compound]”, the “ALDH2 inhibitory activity (in words)” value on ALDH2 is listed as “none of them showed any activity”. Moreover, on ALDH1a1, the “activity against ALDH1a1 (in words)” value is reported as “none of them showed any activity”.

On to `CCN(Cc1ccc(OC)cc1)C(=S)SSC(=S)N(CC)Cc1ccc(OC)cc1`, for which the “Aldh2 (IC50, μM) ± SE” value at ALDH2 (Table III) was “No inhibition”. Further, the IC50 on ALDH1a1 (setting [3]) was 0.58 ± 0.41 µM.

`O=C(Oc1ccc([N+](=O)[O-])cc1)N1CCN(Cc2cccc(Oc3ccccc3)c2)CC1` [JZL-195, reference compound]: the IC50 on human FAAH (hFAAH) came out at 0.04 ± 0.02 µM.

Regarding `CCOC(=O)CCN(CC)C(=S)SSC(=S)N(CC)CCC(=O)OCC` [II-2g, bis(N-ethoxycarbonylethylethylthiocarbamoyl)disulphide], the IC50 on human MAGL (hMAGL) is 3.53 ± 1.32 µM; on human FAAH (hFAAH) it was 10.1 ± 0.68 µM.

On to `CCN(CCC(=O)O)C(=S)SSC(=S)N(CC)CCC(=O)O` [Compound I-2e, bis(N-carboxylethylethylthiocarbamoyl)disulfide], for which the IC50 on ALDH2 (setting [1]) was determined as 0.85 ± 0.55 µM; at ALDH1a1 (setting [2]), 0.15 ± 0.14 µM; on human MAGL (hMAGL), 0.87 ± 0.21 µM; on human FAAH (hFAAH), 12.8 ± 1.57 µM.

In the case of “bis(N-4-hydroxybenzylethylthlocarbamoyl)disulfide [Compound I-2c]”, the IC50 on ALDH2 (setting [1]) is 10.9 ± 0.61 µM; on ALDH1a1 (setting [2]) it was 0.21 ± 0.04 µM; on human MAGL (hMAGL), 3.71 ± 1.28 µM; on human FAAH (hFAAH), 38.2 ± 7.96 µM. Also, the “catalytic activity of inhibited ALDH1a1 after addition of dithiothreitol” value on ALDH1a1 (addition of dithiothreitol) was “completely restored”.
